US10662161B2, “Pyrimidines and uses thereof” (Regents of the University of Minnesota, priority 2017, dated 2020)
“And” between values parts separate entries of the source, which are not always exact repeats. Equal entries are not always repeated. “Also recorded” adds a separate entry of the source. Structures can show the parent of a compound that is named as a salt.

How the values were obtained:
Assay type in all cases: cell-based
human TLR8 = target: T1, human TLR8 (Homo sapiens, UniProt Q9NR97); assay: Human TLR8-specific reporter gene assay (NF-κB induction, sAP) in HEK293 cells; settings: for TLR8-agonistic activity (in words) / EC50: primary screen; for TLR8-agonistic activity (in words): reporter gene assay; for EC50: HEK293 hTLR8 reporter cells, read-out: EC50, TLR8 agonistic activity (hTLR8-specific NF-κB induction)
T1 construct: expressed in transfected cells; host or cells: HEK293
T1 sequence (Q9NR97 27-1041): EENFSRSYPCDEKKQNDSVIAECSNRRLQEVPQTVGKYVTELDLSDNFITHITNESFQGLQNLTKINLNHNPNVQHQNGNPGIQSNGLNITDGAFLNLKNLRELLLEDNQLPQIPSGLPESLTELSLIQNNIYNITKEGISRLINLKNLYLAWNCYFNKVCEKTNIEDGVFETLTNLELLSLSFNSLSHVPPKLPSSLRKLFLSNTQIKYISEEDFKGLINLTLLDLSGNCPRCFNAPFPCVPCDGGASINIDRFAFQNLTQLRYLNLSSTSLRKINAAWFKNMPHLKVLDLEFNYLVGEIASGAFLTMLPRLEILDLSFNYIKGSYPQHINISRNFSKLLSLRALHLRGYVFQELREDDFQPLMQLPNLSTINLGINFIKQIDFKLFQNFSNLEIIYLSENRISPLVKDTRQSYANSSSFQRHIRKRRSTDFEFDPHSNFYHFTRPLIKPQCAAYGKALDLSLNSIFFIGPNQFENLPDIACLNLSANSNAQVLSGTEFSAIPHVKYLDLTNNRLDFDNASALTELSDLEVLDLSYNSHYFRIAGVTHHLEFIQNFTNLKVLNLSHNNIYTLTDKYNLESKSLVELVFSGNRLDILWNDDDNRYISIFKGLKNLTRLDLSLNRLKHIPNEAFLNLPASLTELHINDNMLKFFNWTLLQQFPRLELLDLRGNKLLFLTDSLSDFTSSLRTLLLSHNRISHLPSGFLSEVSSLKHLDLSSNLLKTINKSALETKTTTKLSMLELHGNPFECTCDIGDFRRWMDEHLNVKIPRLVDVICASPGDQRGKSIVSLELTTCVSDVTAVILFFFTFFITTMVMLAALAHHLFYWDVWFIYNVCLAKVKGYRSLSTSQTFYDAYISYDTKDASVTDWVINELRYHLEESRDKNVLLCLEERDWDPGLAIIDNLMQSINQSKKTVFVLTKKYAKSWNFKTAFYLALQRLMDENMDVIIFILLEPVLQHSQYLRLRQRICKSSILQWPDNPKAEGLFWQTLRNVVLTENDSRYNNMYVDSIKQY
From the text: Human TLR8-Specific Reporter Gene Assays (NF-κB Induction), and TLR-2/-3/-4/-5/-7/-9 Counter-Screens:
The induction of NF-κB was quantified using human TLR-2/-3/-4/-5/-7/-8/-9-specific, rapid-throughput, liquid handler-assisted reporter gene assays as previously described by us.^31,25, 32,33 HEK293 cells stably co-transfected with the appropriate hTLR and secreted alkaline phosphatase (sAP) were maintained in HEK-Blue™ Selection medium. Stable expression of secreted alkaline phosphatase (sAP) under control of NF-κB/AP-1 promoters is inducible by appropriate TLR agonists, and extracellular sAP in the supernatant is proportional to NF-κB induction. Reporter cells were incubated at a density of ˜10^5 cells/ml in a volume of 80 μl/well, in 384-well, flat-bottomed, cell culture-treated microtiter plates in the presence of graded concentrations of stimuli. sAP was assayed spectrophotometrically using an alkaline phosphatase-specific chromogen (present in HEK-detection medium as supplied by InvivoGen) at 620 nm.

[1] = system: CD80 expression in the monocytes (human whole blood); assay: Flow-cytometric immunostimulation: CD80 upregulation in human whole blood; settings: 16 h, CD80-PE-Cy7 MFI
Method: Flow-Cytometric Immunostimulation Experiments:
Cell surface marker upregulation was determined by flow cytometry using protocols published by us previously. Briefly, heparin-anticoagulated whole blood samples were obtained by venipuncture from healthy human volunteers with informed consent and as per guidelines approved by the University of Minnesota Human Subjects Experimentation Committee. Serial dilutions of selected compounds were performed using a Bio-Tek Precision 2000 XS liquid handler in sterile 96-well polypropylene plates, to which were added 100 μL aliquots of anticoagulated whole human blood. The plates were incubated at 37° C. for 16 h. Negative (DMSO) controls were included in each experiment. The following fluorochrome-conjugated antibodies were used: CD14-FITC, CD40-APC, CD80-PE-Cy7, CD86-V450 (Becton-Dickinson Biosciences, San Jose, Calif.). Following incubation, 2.5 μg of each antibody was added to wells with a liquid handler, and incubated at 4° C. in the dark for 60 min. Following staining, erythrocytes were lysed and leukocytes fixed by mixing 200 μL of the samples in 800 μL pre-warmed Whole Blood Lyse/Fix Buffer (Becton-Dickinson Biosciences, San Jose, Calif.) in 96 deep-well plates. After washing the cells twice at 300 g for 10 minutes in RPMI, the cells were transferred to a 96-well plate. […]

[2] = system: human peripheral blood mononuclear cells (hPBMC); assay: Multiplexed immunoassays for cytokine and chemokine induction in human PBMCs; settings: 41-analyte multiplexed immunoassay
Method: Immunoassays for Cytokines.
Fresh human peripheral blood mononuclear cells (hPBMC) were isolated from human blood obtained by venipuncture in Cell Preparation Tubes (CPT, Beckton-Dickinson) with informed consent and as per guidelines approved by the University of Minnesota Human Subjects Experimentation Committee. Aliquots of PBMCs (10^5 cells in 100 µL/well) were stimulated for 16 h with graded concentrations of test compounds. Supernatants were isolated by centrifugation, and were assayed in duplicates using analyte-specific multiplexed cytokine/chemokine bead array assays (HCYTMAG-60K-PX29 MILLIPLEX MAP Human Cytokine/Chemokine Magnetic Bead Panel, EMD Millipore, Billerica, Mass.) as reported by us previously.^19 The following analytes were quantified: sCD40L, VEGF, TNF-β, TNF-α. TGF-α, RANTES, PDGF-AB/BB, PDGF-AA, MIP-1β, MIP-1α, MDC (CCL22), MCP-3, MCP-1, IP-10, IL-17A, IL-15, IL-13, IL-12 (p70), IL-12 (p40). IL-10, IL-9, IL-8, IL-7, IL-6, IL-5, IL-4, IL-3, IL-2, IL-1 ra, IL-1β, IL-1α, IFN-γ, IFN-α2, GRO, GM-CSF, G-CSF, fractalkine, Fit-3 ligand, FGF-2, eotaxin, EGF.

TLR8-agonistic activity (in words) (human TLR8)	Structure (SMILES)	further results
substantial losses in potency	CCCCNc1nc(N)nc(C)c1F [Compound 6c, N^4-Butyl-5-fluoro-6-methylpyrimidine-2,4-diamine]	–
substantial losses in potency	CCCCNc1nc(N)nc(C)c1Br [Compound 6b, 5-Bromo-N^4-butyl-6-methylpyrimidine-2,4-diamine]	–
appeared to plateau	CCCCNc1nc(N)nc(C)c1CCCCCN.Cl.Cl [Compound 27c, 5-(5-Aminopentyl)-MN-butyl-6-methylpyrimidine-2,4-diamine dihydrochloride]	–
substantial losses in potency	CCCCNc1nc(N)nc(C)c1Cl [Compound 6a, N^4-Butyl-5-chloro-6-methylpyrimidine-2,4-diamine]	–

Further lines, the compound ahead of its results:

Structure (SMILES)	TLR8-agonistic activity (in words) (human TLR8)	further results
CCCCSc1nc(N)nc(C)c1I [Compound 4h, 4-(Butylthio)-5-iodo-6-methylpyrimidin-2-amine]	inactive	–
CCCCNc1nc(N)nc(C)c1Cc1ccccc1 [Compound 24, 5-Benzyl-MN-butyl-6-methylpyrimidine-2,4-diamine]	diminution of activity, exhibiting greatly attenuated area-under-the curve	–
CCCCNc1nc(N)nc(-c2ccccc2)c1I [Compound 29, N^4-Butyl-5-iodo-6-phenylpyrimidine-2,4-diamine]	inactive	–
CCCCNc1nc(N)nc(-c2ccccc2)c1CCCCCN [Compound 32c, 5-(5-Aminopentyl)-N^4-butyl-6-phenylpyrimidine-2,4-diamine dihydrochloride]	–	EC50 (human TLR8): 2350 nM
CCCCN(C)c1nc(N)nc(C)c1I [Compound 4e, N^4-Butyl-5-iodo-N^4,6-dimethylpyrimidine-2,4-diamine]	abrogated activity	–
CCCC#Cc1cc(C)nc(N)n1 [Compound 4i, 4-Methyl-6-(pent-1-yn-1-yl)pyrimidin-2-amine]	inactive	–
CCCCNc1nc(N)ncc1I [Compound 17, N^4-Butyl-5-iodopyrimidine-2,4-diamine]	entirely without measurable TLR8-agonistic activity	–
CCCCN(Cc1ccccc1)c1nc(N)nc(C)c1I [Compound 4f, N^4-Benzyl-N^4-butyl-5-iodo-6-methylpyrimidine-2,4-diamine]	abrogated activity	–
CCCCNc1cc(C)nc(N)n1 [Compound 15, N^4-Butyl-6-methylpyrimidine-2,4-diamine]	–	EC50 (human TLR8): 22000 nM; fold less active than 4b (TLR8 EC50) (human TLR8; relative to 4b): ca. fourteen-fold less active
CCCCNc1nc(N)nc(C)c1I [Compound 4b, N^4-Butyl-5-iodo-6-methylpyrimidine-2,4-diamine]	–	activity in upregulating CD80 [1]: 1.5 μg/mL and 5 μM; TLR8 specificity/selectivity (in words) (human TLR8; reporter gene assays with TLR-2/-3/-4/-5/-7/-9 counter-screens): pure TLR8 agonist; also recorded: bona fide TLR8-specific agonist
CCCCCc1cc(C)nc(N)n1 [Compound 4j, 4-Methyl-6-pentylpyrimidin-2-amine]	inactive	–
CCCCNc1nc(N)nc(-c2ccccc2)c1CCCCN.Cl.Cl [Compound 32b, 5-(4-Aminobutyl)-N^4-butyl-6-phenylpyrimidine-2,4-diamine dihydrochloride]	–	cytokine and chemokine induction (in words) [2]: significantly weaker; EC50 (human TLR8): 2700 nM
CCCCCc1nc(N)nc(C)c1I [Compound 4k, 5-iodo-4-methyl-6-pentylpyrimidin-2-amine]	inactive	–
CCCCNc1ccnc(N)n1 [Compound 16, N^4-Butylpyrimidine-2,4-diamine]	–	EC50 (human TLR8): 73200 nM
CCCCNc1nc(N)nc(C)c1CCCN.Cl.Cl [Compound 27a, 5-(3-Aminopropyl)-N^4-butyl-6-methylpyrimidine-2,4-diamine dihydrochloride]	–	EC50 (human TLR8): 2310 nM; fold increase in TLR8 potency relative to that of 4b (22 μM) (human TLR8; reference printed as 4b (22 μM)): increased nearly ten-fold
CCCCOc1nc(N)nc(C)c1I [Compound 4g, 4-Butoxy-5-iodo-6-methylpyrimidin-2-amine]	inactive	–
